Laboratory results: ChEMBL document CHEMBL1151360, “Antibiotic principle of Eupatorium capillifolium” (1981)
Active and inactive are the calls of the source. The calls are words filed in the database; no cut-off is given here.

Columns and labels:
[1] = test system: Escherichia coli; assay: Antibacterial activity against Escherichia coli ATCC 10536 in synthetic medium by disc-plate assay; assay type: functional, organism-based
[2] = test system: Bacillus subtilis; assay: Antibacterial activity against Bacillus subtilis ATCC 6633 at 750 ug/mL in synthetic medium by disc-plate assay in presence of 60 ug/mL glutamic acid; assay type: functional
[3] = test system: Bacillus subtilis; assay: Antibacterial activity against Bacillus subtilis ATCC 6633 at 750 ug/mL in complex natural medium by disc-plate assay; assay type: functional, organism-based
[4] = test system: Bacillus subtilis; assay: Antibacterial activity against Bacillus subtilis ATCC 6633 at 750 ug/mL in synthetic medium by disc-plate assay in presence of 1000 ug/mL glutamic acid; assay type: functional
[5] = test system: Bacillus subtilis; assay: Antibacterial activity against Bacillus subtilis ATCC 6633 at 750 ug/mL in synthetic medium by disc-plate assay in presence of 30 ug/mL glutamic acid; assay type: functional
[6] = test system: Bacillus subtilis; assay: Antibacterial activity against Bacillus subtilis ATCC 6633 at 250 ug/mL in synthetic medium by disc-plate assay; assay type: functional; conditions: read-out: IZ
[7] = test system: Bacillus subtilis; assay: Antibacterial activity against Bacillus subtilis ATCC 6633 at 750 ug/mL in synthetic medium by disc-plate assay; assay type: functional; conditions: read-out: IZ
[8] = test system: Bacillus subtilis; assay: Antibacterial activity against Bacillus subtilis ATCC 6633 at 750 ug/mL in synthetic medium by disc-plate assay in presence of 3000 ug/mL glutamic acid; assay type: functional
[9] = test system: Bacillus subtilis; assay: Antibacterial activity against Bacillus subtilis ATCC 6633 at 750 ug/mL in synthetic medium by disc-plate assay in presence of 250 ug/mL glutamic acid; assay type: functional
[10] = test system: Bacillus subtilis; assay: Antibacterial activity against Bacillus subtilis ATCC 6633 at 750 ug/mL in synthetic medium by disc-plate assay in presence of 5000 ug/mL glutamic acid; assay type: functional
[11] = test system: Staphylococcus aureus; assay: Antibacterial activity against Staphylococcus aureus ATCC 6538P in complex natural medium by disc-plate assay; assay type: functional, organism-based
[12] = test system: Escherichia coli; assay: Antibacterial activity against Escherichia coli ATCC 10536 in complex natural medium by disc-plate assay; assay type: functional, organism-based
[13] = test system: Bacillus subtilis; assay: Antibacterial activity against Bacillus subtilis ATCC 6633 at 60 ug/mL in synthetic medium by disc-plate assay; assay type: functional; conditions: read-out: IZ
[14] = test system: Bacillus subtilis; assay: Antibacterial activity against Bacillus subtilis ATCC 6633 at 120 ug/mL in synthetic medium by disc-plate assay; assay type: functional; conditions: read-out: IZ
[15] = test system: Bacillus subtilis; assay: Antibacterial activity against Bacillus subtilis ATCC 6633 at 30 ug/mL in synthetic medium by disc-plate assay; assay type: functional; conditions: read-out: IZ
[16] = test system: Bacillus subtilis; assay: Antibacterial activity against Bacillus subtilis ATCC 6633 at 750 ug/mL in synthetic medium by disc-plate assay in presence of 120 ug/mL glutamic acid; assay type: functional
[17] = test system: Bacillus subtilis; assay: Antibacterial activity against Bacillus subtilis ATCC 6633 at 15 ug/mL in synthetic medium by disc-plate assay; assay type: functional; conditions: read-out: IZ
[18] = test system: Bacillus subtilis; assay: Antibacterial activity against Bacillus subtilis ATCC 6633 at 500 ug/mL in synthetic medium by disc-plate assay; assay type: functional; conditions: read-out: IZ
[19] = test system: Bacillus subtilis; assay: Antibacterial activity against Bacillus subtilis ATCC 6633 at 750 ug/mL in synthetic medium by disc-plate assay in presence of 500 ug/mL glutamic acid; assay type: functional
[20] = test system: Bacillus subtilis; assay: Antibacterial activity against Bacillus subtilis ATCC 6633 at 750 ug/mL in synthetic medium by disc-plate assay in presence of 10 ug/mL glutamic acid; assay type: functional
[21] = test system: Bacillus subtilis; assay: Antibacterial activity against Bacillus subtilis ATCC 6633 at 750 ug/mL in synthetic medium by disc-plate assay in presence of 750 ug/mL glutamic acid; assay type: functional

C=C(C(=O)O)[C@@H]1CC[C@@]2(C)CCCC(=C)[C@@H]2C1 [COSTIC ACID]
Activity [1]: inactive
inhibition (INH) [2]: 60%
inhibition zone (IZ) [2]: 22.5 mm
Activity [3]: inactive
inhibition (INH) [4]: 89%
inhibition zone (IZ) [4]: 18 mm
inhibition (INH) [5]: 40%
inhibition zone (IZ) [5]: 24 mm
zone of inhibition at 250 µg/mL [6]: 22 mm
zone of inhibition at 750 µg/mL [7]: 26 mm
inhibition (INH) [8]: 89%
inhibition zone (IZ) [8]: 18 mm
inhibition (INH) [9]: 74%
inhibition zone (IZ) [9]: 21 mm
inhibition (INH) [10]: 89%
inhibition zone (IZ) [10]: 18 mm
Activity [11]: inactive
Activity [12]: inactive
zone of inhibition at 60 µg/mL [13]: 16.5 mm
zone of inhibition at 120 µg/mL [14]: 19 mm
zone of inhibition at 30 µg/mL [15]: 14.5 mm
inhibition (INH) [16]: 74%
inhibition zone (IZ) [16]: 21 mm
zone of inhibition at 15 µg/mL [17]: 0 mm
zone of inhibition at 500 µg/mL [18]: 24 mm
inhibition (INH) [19]: 80%
inhibition zone (IZ) [19]: 20 mm
inhibition (INH) [20]: 0%
inhibition zone (IZ) [20]: 26 mm
inhibition at 750 µg/mL [21]: 85%
zone of inhibition at 750 µg/mL ([21]; read-out: IZ): 19 mm
